According to PMC3031881, “Amyloid precursor protein selective gamma-secretase inhibitors for treatment of Alzheimer's disease” (Alzheimer's Research & Therapy, 2010):
Marks after values point to notes of the source that are not given here.

Tests used:
[1] = tested on: Notch signaling in SNC cells (rat NotchΔE, CBF-Luciferase); test: SNC dual cell assay, Notch signaling luciferase reporter; settings: for APP selectivity (cellular, SNC assay): text of Discussion; for EC50: Rattus norvegicus, read-out: SNC Notch Signaling EC50
[2] = tested on: Aβ production in SNC cells (CHO APPSw); test: SNC dual cell assay, secreted Aβ1-x ELISA; settings: Cricetulus griseus; for IC50: read-out: IC50 for inhibition of Aβ production in the SNC assay; for EC50: read-out: SNC Aβ EC50
[3] = Compound levels in plasma and brain by LC-MS-MS; settings: for concentration at 3 h: mouse
[4] = molecular target: T1, gamma-secretase complex (from CHO S1 cells) (Homo sapiens, UniProt P49768); test: Competitive displacement of biotinylated active site isostere (PS1/Nicastrin Western blot); type: binding
T1 construct: expressed in transfected cells; host or cells: CHO S1 cells

[5] = tested on: brain Aβx-40 in FVB mice; test: Acute reduction of brain Aβx-40 in wild-type FVB mice; type: in vivo, mouse
Method: (§1) Water and food were available ad libitum. […] Control animals were dosed with vehicle.
Statistical significance was determined by ANOVA.

[6] = Oral bioavailability in rat; settings: in vivo, read-out: oral bioavailability F
[7] = tested on: brain Aβ in PDAPP mice; test: Acute reduction of brain Aβ in PDAPP mice; type: in vivo, mouse; settings: for reduction of brain Aβ1-x: 3 h
Method: as §1
Figure 4 Acute reduction of brain Aβ by ELN318463 in PDAPP (a) and FVB mice (b). The mice were dosed orally with vehicle, or ELN318463 at 30 mg/kg or 100 mg/kg and sacrificed 3 h post treatment. Brain Aβ1-x in PDAPP (a), or Aβx-40 in FVB (b) was quantified by ELISA following extraction in guanidine buffer as described in methods. ** denotes P < 0.01, *** denotes P < 0.001 by Mann-Whitney in A, and two-tailed Students t-test in (b). TEXT PRINTED IN THE PICTURE: (A) no label printed: Aβ reduction: 37% (30[mpk]); Aβ reduction: 48% (100[mpk]) | (B) no label printed: Aβ reduction: 18% (30[mpk]); Aβ reduction: 18% (100[mpk])

[8] = tested on: FVB mice (Math1 mRNA, body and organ weight, neutrophils); settings: seven days b.i.d.; LY411575 5 mg/kg/dose; ELN475516 up to 1,000 mg/kg/dose
[9] = Metabolism (N-glucuronidation); settings: precluded longer-term studies in mice (or other models)
[10] = tested on: brain Aβx-40 in FVB mice; test: Seven-day b.i.d. repeat dose study, brain Aβx-40; settings: seven days; for reduction of brain Aβ: three hours post last dose
[11] = tested on: duodenum and ileum of FVB mice; test: Seven-day b.i.d. repeat dose study, small intestine histopathology (goblet cell hyperplasia); settings: for goblet cells in ileum sections / goblet cell hyperplasia: seven days b.i.d.; for goblet cells in ileum sections: H&E and PAS stained sections; for goblet cell hyperplasia: LY411575 5 mg/kg duodenum and ileum, ELN475516 any dose, duodenum
[12] = tested on: thymic Hes-1 mRNA (Notch signaling); test: Thymic Hes-1 mRNA after single dose in FVB mice (TaqMan RT-PCR); type: in vivo, mouse; settings: three hours
Method: as §1

[13] = tested on: PDAPP mouse; design: method as in earlier work; settings: three and six months, doses which affected AD pathology; cited from earlier work
[14] = tested on: brain Aβ in Tg2576 mice; design: method as in PMID 19671883; settings: cited from earlier work
[15] = tested on: APP metabolites in HEK293 cells stably expressing APPsw; test: APP metabolites by Western blot in inhibitor treated cells; settings: approximately 1 X and 10 X ED50, overnight, cell extracts
[16] = single oral dose 30 mg/kg, three hours post dose
[17] = 15 mg/kg/dose b.i.d., 7 days, N = 5
[18] = 30 mg/kg/dose b.i.d., 7 days, N = 5
[19] = 100 mg/kg/dose b.i.d., 7 days, N = 5
[20] = 300 mg/kg/dose b.i.d., 7 days, N = 5
[21] = 600 mg/kg/dose b.i.d., 7 days, N = 5
[22] = 1,000 mg/kg/dose b.i.d., 7 days, N = 5
[23] = ileum, among all mice of the ELN475516 treated groups
[24] = 5 mg/kg/dose b.i.d., 7 days, goblet cell hyperplasia in affected animals

NC(=O)[C@@H](CCC(F)(F)F)N(Cc1ccc(-c2ncon2)cc1F)S(=O)(=O)c1ccc(Cl)cc1 [BMS-708163]
APP selectivity (cellular, SNC assay) [1]: 57 X | IC50 [2]: 1.13 nM

O=C1NCCCC[C@H]1N(Cc1ccc(Br)cc1)S(=O)(=O)c1ccc(Cl)cc1 [ELN318463, N-(4-Bromobenzyl)-4-chloro-N-((3R)-2-oxoazepan-3-yl)benzenesulfonamide]
EC50 [1]: 2820 nM | Cellular Selectivity (APP/Notch) ([1]; ratio of cellular Notch signaling and Aβ EC50): 120 | concentration at 3 h ([3]; PDAPP, brain, po, 30 mg/kg): 690 nM | concentration at 3 h ([3]; PDAPP, brain, po, 100 mg/kg): 1870 nM | concentration at 3 h ([3]; female, FVB/N, brain, po, 30 mg/kg): 754 nM | concentration at 3 h ([3]; female, FVB/N, brain, po, 100 mg/kg): 2700 nM | EC50 [2]: 23.4 ± 8.6 nM | displacement of biotinylated active site probe ([4]; in the absence of substrate): No displacement | reduction of brain Aβx-40 [5, 16]: 18% | reduction of brain Aβx-40 ([5]; single oral dose 100 mg/kg, 3 h post dose): 18% | bioavailability [6]: 30% | reduction of Aβx-40 ([7]; 30 mg/kg oral): 20% | reduction of Aβx-40 ([7]; 100 mg/kg oral): 25% | reduction of brain Aβ1-x ([7]; single oral dose 30 mg/kg): 37% | reduction of brain Aβ1-x ([7]; single oral dose 100 mg/kg): 48%

O=S(=O)(c1ccc(Cl)cc1)N1C2CCCC1c1cn[nH]c1C2 (centres unmarked) [ELN475516, 10-((4-Chlorophenyl)sulfonyl)-4,5,6,7,8,9-hexahydro-1H-4,8-epiminocycloocta(c)pyrazole]
EC50 [1]: 719 ± 225 nM | Math1 mRNA levels in duodenum and ileum [8]: No effects | terminal plasma compound levels ([3]; acute single dose study, highest dose tested (300 mg/kg), FVB mice): 12.3 µM | concentration at 3 h ([3]; female, FVB, in vivo, 15 mg/kg): 187 nM | concentration at 3 h ([3]; female, FVB, in vivo, 1000 mg/kg/dose): 12300 nM | EC50 [2]: 8.73 ± 3.96 nM | metabolic liability [9]: Limiting N-glucuronidation | brain Aβ levels by 24 hours post dose ([5]; all treatment groups (30, 100, 300 mg/kg)): returning to baseline | reduction of brain Aβ ([5]; single oral dose 30 mg/kg, 10 hours post dose): 28% | reduction of brain Aβx-40 [5, 16]: 40% | reduction of brain Aβ ([5]; single oral dose 100 mg/kg, 10 hours post dose): 33% | reduction of brain Aβ ([5]; single oral dose 100 mg/kg, 14 hours post dose): 14% | reduction of brain Aβ ([5]; single oral dose 300 mg/kg, 10 hours post dose): 56% | reduction of brain Aβ ([5]; single oral dose 300 mg/kg, 14 hours post dose): 29% | reduction of brain Aβx-40 ([5]; single oral dose 300 mg/kg, three hours post dose): 71% | time of maximal reduction of brain Aβ post dose ([5]; single oral dose 30, 100, 300 mg/kg): three | reduction of brain Aβ ([10]; 15 mg/kg/dose b.i.d. oral): 33% | maximal effect, reduction of brain Aβ ([10]; >100 mg/kg b.i.d. oral): 74% | Duodenum # animals affected [11, 17]: 0 | Ileum # animals affected [11, 17]: 0 | Duodenum # animals affected [11, 18]: 0 | Ileum # animals affected [11, 18]: 4 | Ileum Mean severity score ([11]; 30 mg/kg/dose b.i.d., 7 days, affected animals): 0.5 | Duodenum # animals affected [11, 19]: 0 | Ileum # animals affected [11, 19]: 2 | Ileum Mean severity score ([11]; 100 mg/kg/dose b.i.d., 7 days, affected animals): 1.25 | Duodenum # animals affected [11, 20]: 0 | Ileum # animals affected [11, 20]: 0 | Duodenum # animals affected [11, 21]: 0 | Ileum # animals affected [11, 21]: 2 | Ileum Mean severity score ([11]; 600 mg/kg/dose b.i.d., 7 days, affected animals): 0.5 | Duodenum # animals affected [11, 22]: 0 | Ileum # animals affected [11, 22]: 1 | Ileum Mean severity score ([11]; 1,000 mg/kg/dose b.i.d., 7 days, affected animals): 0.5 | number of mice with a questionable increase in goblet cells [11, 23]: 8 | number of mice with no increase in goblet cells [11, 23]: 21 | goblet cells in ileum sections [11]: no apparent dose-related increase | goblet cell hyperplasia [11]: not observed | reduction of cortical Aβ1-x ([7]; single oral dose 10 mg/kg, three hours): 31% | reduction of brain Aβ1-x ([7]; single oral dose 30 mg/kg): 45% | thymic Hes-1 mRNA ([12]; single oral dose 300 mg/kg (highest dose tested)): statistically significant reduction

O=S(=O)(c1ccc(C(F)(F)F)cc1)N1c2cc(F)c(F)cc2-c2[nH]ncc2[C@H]1C1CC1 [ELND006]
tolerability in chronic study [13]: well tolerated

O=S(=O)(N[C@H](CO)C(C(F)(F)F)C(F)(F)F)c1ccc(Cl)s1 [GSI-953]
APP selectivity (cellular, SNC assay) [1]: 45 X | dose producing a similar magnitude effect (33% brain Aβ reduction) [14]: 5 mg/kg | IC50 [2]: 8 nM | reduction of brain Aβx-40 [5, 16]: 33%

CC(C)C[C@H](NC(=O)[C@H](Cc1ccccc1)C[C@@H](O)[C@H](Cc1ccccc1)NC(=O)OC(C)(C)C)C(=O)N[C@@H](Cc1ccccc1)C(N)=O [L-685,458, tert-Butyl (2S,3R,5R)-6-((S)-1-((S)-1-amino-1-oxo-3-phenylpropan-2-ylamino)-4-methyl-1-oxopentan-2-ylamino)-5-benzyl-3-hydroxy-6-oxo-1-phenylhexan-2-ylcarbamate]
effect on α-CTF and β-CTF of APP [15]: stabilize both α-CTF and β-CTF in a dose-dependent manner | EC50 [1]: 184 ± 145 nM | EC50 [2]: 13.2 ± 4.5 nM | captured gamma-secretase complex competed ([4]; co-incubation with 10 μM, 50 nM biotinylated probe, preliminary experiments): > 90% | concentration for 50% displacement of biotinylated active site isostere probe, above IC50 in the gammaAPP assay ([4]; no added substrate): approximately three

C[C@H](NC(=O)[C@@H](O)c1cc(F)cc(F)c1)C(=O)N[C@@H]1C(=O)N(C)c2ccccc2-c2ccccc21 [LY411575, (S)-2-((S)-2-(3,5-Difluorophenyl)-2-hydroxyacetamido)-N-((S)-5-methyl-6-oxo-6,7-dihydro-5H-dibenzo(b,d)azepin-7-yl)propanamide, reference compound]
EC50 [1]: 1.8 ± 1.35 nM | Math1 mRNA levels in duodenum and ileum [8]: robust elevation | EC50 [2]: 0.116 ± 0.011 nM | reduction of brain Aβx-40 ([5]; single oral dose 10 mg/kg, three hours post dose): 74% | reduction of brain Aβ ([10]; 5 mg/kg b.i.d. oral): 83% | Ileum # animals affected ([11]; 5 mg/kg/dose b.i.d., 7 days, N = 5): 5 | Duodenum # animals affected ([11]; 5 mg/kg/dose b.i.d., 7 days, N = 5 (tissue lost from one animal)): 4* | Duodenum Mean severity score [11, 24]: 2 | Ileum Mean severity score [11, 24]: 3 | goblet cells in ileum sections [11]: moderate increase in goblet cells | goblet cell hyperplasia [11]: readily apparent | reduction of thymic Hes-1 mRNA ([12]; single oral dose 10 mg/kg): 60%
